Laboratory results as given in ChEMBL document CHEMBL1201862, “PubChem BioAssay data set” (2004).
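Dose response: 5 concentrations. Exposure: 48 h. Format: 96-well plates. Endpoint: linear interpolation; highest concentration if not reached. Abbreviation: GI50, concentration required for 50% inhibition of growth.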 Activity calls are given as the source filed them. Rule as the data show it: active = GI50 up to about 1.1 µM and inactive = higher.

Columns and labels:
Experiment in all cases: growth of human tumour cells (NCI), 48 h
RXF 393 = test system: RXF 393
UO-31 = test system: UO-31
SF-295 = test system: SF-295
A549 = test system: A549
OVCAR-4 = test system: OVCAR-4
MCF7 = test system: MCF7
MOLT-4 = test system: MOLT-4
K562 = test system: K562
SN12C = test system: SN12C
SF-268 = test system: SF-268
SNB-75 = test system: SNB-75
Hs-578T = test system: Hs-578T
NCI-H522 = test system: NCI-H522
NCI-H23 = test system: NCI-H23
SK-MEL-5 = test system: SK-MEL-5
NCI/ADR-RES = test system: NCI/ADR-RES
SK-MEL-2 = test system: SK-MEL-2
NCI-H460 = test system: NCI-H460
HOP-62 = test system: HOP-62
OVCAR-3 = test system: OVCAR-3
IGROV-1 = test system: IGROV-1
UACC-257 = test system: UACC-257
SNB-19 = test system: SNB-19
HCT-116 = test system: HCT-116
OVCAR-5 = test system: OVCAR-5
SF-539 = test system: SF-539
SK-OV-3 = test system: SK-OV-3
LOX IMVI = test system: LOX IMVI
PC-3 = test system: PC-3
UACC-62 = test system: UACC-62
OVCAR-8 = test system: OVCAR-8
SW-620 = test system: SW-620
M14 = test system: M14
ACHN = test system: ACHN
RPMI-8226 = test system: RPMI-8226
HCC 2998 = test system: HCC 2998
EKVX = test system: EKVX
U-251 = test system: U-251
786-0 = test system: 786-0
KM12 = test system: KM12
NCI-H226 = test system: NCI-H226
MDA-N = test system: MDA-N
SR = test system: SR
HCT-15 = test system: HCT-15
Malme-3M = test system: Malme-3M
HL-60 = test system: HL-60
CCRF-CEM = test system: CCRF-CEM
BT-549 = test system: BT-549
HT-29 = test system: HT-29
SK-MEL-28 = test system: SK-MEL-28
TK-10 = test system: TK-10
DU-145 = test system: DU-145
MDA-MB-435 = test system: MDA-MB-435
CAKI-1 = test system: CAKI-1
MDA-MB-231 = test system: MDA-MB-231
COLO 205 = test system: COLO 205
HOP-92 = test system: HOP-92

## CCC(C)c1c(Cl)nc(Cl)nc1Cl (stereo not drawn)
RXF 393
  GI50: 8.02 µM (inactive)
UO-31
  GI50: 17.9 µM (inactive)
SF-295
  GI50: 24 µM (inactive)
A549
  GI50: > 10 µM (inactive)
OVCAR-4
  GI50: 16.9 µM (inactive)
MCF7
  GI50: 4.45 µM (inactive)
MOLT-4
  GI50: 0.271 µM (active)
K562
  GI50: 2.2 µM (inactive)
SN12C
  GI50: 6.89 µM (inactive)
SF-268
  GI50: 8.04 µM (inactive)
SNB-75
  GI50: 13.8 µM (inactive)
Hs-578T
  GI50: 21.6 µM (inactive)
NCI-H522
  GI50: 0.582 µM (active)
NCI-H23
  GI50: 2.64 µM (inactive)
SK-MEL-5
  GI50: 2.81 µM (inactive)
NCI/ADR-RES
  GI50: 24.2 µM (inactive)
SK-MEL-2
  GI50: 20.9 µM (inactive)
NCI-H460
  GI50: 7.46 µM (inactive)
HOP-62
  GI50: 4.72 µM (inactive)
OVCAR-3
  GI50: 4.57 µM (inactive)
IGROV-1
  GI50: 14.4 µM (inactive)
UACC-257
  GI50: > 10 µM (inactive)
SNB-19
  GI50: 16 µM (inactive)
HCT-116
  GI50: 6.07 µM (inactive)
OVCAR-5
  GI50: 16.7 µM (inactive)
SF-539
  GI50: 23.4 µM (inactive)
SK-OV-3
  GI50: 36.2 µM (inactive)
LOX IMVI
  GI50: 0.44 µM (active)
PC-3
  GI50: 12.7 µM (inactive)
UACC-62
  GI50: 18.6 µM (inactive)
OVCAR-8
  GI50: 17.9 µM (inactive)
SW-620
  GI50: 3.71 µM (inactive)
M14
  GI50: 1.44 µM (inactive)
ACHN
  GI50: 3.37 µM (inactive)
RPMI-8226
  GI50: 11 µM (inactive)
HCC 2998
  GI50: 11.4 µM (inactive)
EKVX
  GI50: 15.5 µM (inactive)
U-251
  GI50: 4.16 µM (inactive)
786-0
  GI50: 10.9 µM (inactive)
KM12
  GI50: 1.78 µM (inactive)
NCI-H226
  GI50: 2.86 µM (inactive)
MDA-N
  GI50: 6.44 µM (inactive)
SR
  GI50: 1.25 µM (inactive)
HCT-15
  GI50: 5.13 µM
Malme-3M
  GI50: 5.75 µM (inactive)
HL-60
  GI50: 2.99 µM (inactive)
CCRF-CEM
  GI50: 0.1 µM (active)
BT-549
  GI50: 1.75 µM (inactive)
HT-29
  GI50: 6.01 µM (inactive)
SK-MEL-28
  GI50: 7.18 µM (inactive)
TK-10
  GI50: 21.3 µM (inactive)
DU-145
  GI50: 16.3 µM (inactive)
MDA-MB-435
  GI50: 2.77 µM (inactive)

## O=C(NNC(c1ccccc1)C(F)(F)F)c1ccncc1 (stereo not drawn)
CAKI-1
  GI50: > 100 µM (inactive)
SF-295
  GI50: > 100 µM (inactive)
A549
  GI50: > 100 µM (inactive)
OVCAR-4
  GI50: > 100 µM (inactive)
MCF7
  GI50: > 100 µM (inactive)
MOLT-4
  GI50: > 100 µM (inactive)
K562
  GI50: > 100 µM (inactive)
SN12C
  GI50: > 100 µM (inactive)
SF-268
  GI50: > 100 µM (inactive)
SNB-75
  GI50: > 100 µM (inactive)
NCI-H522
  GI50: > 100 µM (inactive)
NCI-H23
  GI50: > 100 µM (inactive)
SK-MEL-5
  GI50: > 100 µM (inactive)
NCI/ADR-RES
  GI50: > 100 µM (inactive)
SK-MEL-2
  GI50: > 100 µM (inactive)
NCI-H460
  GI50: > 100 µM (inactive)
HOP-62
  GI50: > 100 µM (inactive)
IGROV-1
  GI50: > 100 µM (inactive)
UACC-257
  GI50: > 100 µM (inactive)
SNB-19
  GI50: > 100 µM (inactive)
HCT-116
  GI50: > 100 µM (inactive)
OVCAR-5
  GI50: > 100 µM (inactive)
SF-539
  GI50: > 100 µM (inactive)
LOX IMVI
  GI50: > 100 µM (inactive)
PC-3
  GI50: > 100 µM (inactive)
MDA-MB-231
  GI50: > 100 µM (inactive)
OVCAR-8
  GI50: > 100 µM (inactive)
SW-620
  GI50: > 100 µM (inactive)
M14
  GI50: > 100 µM (inactive)
ACHN
  GI50: > 100 µM (inactive)
RPMI-8226
  GI50: > 100 µM (inactive)
HCC 2998
  GI50: > 100 µM (inactive)
EKVX
  GI50: > 100 µM (inactive)
U-251
  GI50: > 100 µM (inactive)
786-0
  GI50: > 100 µM (inactive)
KM12
  GI50: > 100 µM (inactive)
NCI-H226
  GI50: > 100 µM (inactive)
COLO 205
  GI50: > 100 µM (inactive)
SR
  GI50: > 100 µM (inactive)
HCT-15
  GI50: > 100 µM
Malme-3M
  GI50: > 100 µM (inactive)
HL-60
  GI50: > 100 µM (inactive)
CCRF-CEM
  GI50: > 100 µM (inactive)
BT-549
  GI50: > 100 µM (inactive)
HOP-92
  GI50: > 100 µM (inactive)
HT-29
  GI50: > 100 µM (inactive)
SK-MEL-28
  GI50: > 100 µM (inactive)
TK-10
  GI50: > 100 µM (inactive)
DU-145
  GI50: > 100 µM (inactive)
MDA-MB-435
  GI50: > 100 µM (inactive)
